Columns and labels:
Type in all cases: in vivo
[1] = test system: kale 'Red Russian'; assay: Content analysis of kale: protein, amino acids, fiber, fatty acids, minerals (Example 4, Tables 12-14); details: 28 DA-A; for Alanine, Percent Increase over the Untreated Check (on a % dry matter basis) / Aspartic acid, Percent Increase over the Untreated Check (on a % dry matter basis) / Cysteine, Percent Increase over the Untreated Check (on a % dry matter basis) / Glutamic acid, Percent Increase over the Untreated Check (on a % dry matter basis) / Glycine, Percent Increase over the Untreated Check (on a % dry matter basis) / Iso-leucine, Percent Increase over the Untreated Check (on a % dry matter basis) / Leucine, Percent Increase over the Untreated Check (on a % dry matter basis) / Lysine, Percent Increase over the Untreated Check (on a % dry matter basis) / Methionine, Percent Increase over the Untreated Check (on a % dry matter basis) / Proline, Percent Increase over the Untreated Check (on a % dry matter basis) / Threonine, Percent Increase over the Untreated Check (on a % dry matter basis) / Total Amino acids, Percent Increase over the Untreated Check (on a % dry matter basis) / Total Protein, Percent Increase over the Untreated Check (on a % dry matter basis) / Valine, Percent Increase over the Untreated Check (on a % dry matter basis): chlorothalonil ###
Procedure: Greenhouse and laboratory studies were conducted to ascertain the tolerance and nutritional quality differences following postemergence applications of the insecticide chlorpyrifos, the fungicide chlorothalonil, the PGRs mepiquat-chloride and paclobutrazol, and the safeners napthalic anhydride and isoxadifen-ethyl on kale ‘Red Russian’ and basil ‘Genovese’. Visual injury was rated based on general phytotoxicity, chlorosis, and visual stunting and each measurement was based on a percent scale from 0 to 100 where 0 equals no visual response and 100 equals complete plant death. Kale and basil were both harvested approximately 4 weeks after treatments and plants were pooled over replicates for content analysis of crude protein, crude amino acid content, acid detergent fiber, neutral detergent fiber, total fatty acids, and/or key mineral content (including Na, Ca, P, Mg, K, Fe, Mn, Zn, and Cu). In addition, the amounts of key individual amino acids (aspartic acid, threonine, glutamic acid, proline, glycine, cysteine, valine, leucine, isoleucine, methionine, and lysine) and composite classifications of fatty acid (saturated fatty acids, monounsaturated fatty acids, polyunsaturated fatty acids) were also analyzed from these sub-samples for kale (Tables 10-14).

[2] = test system: basil ‘Genovese’; assay: Yield, fresh weight of basil after insecticide, fungicide, PGRs and safeners (Example 4, Table 10); details: DA-A, check 31.8
Outline: (§1)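 Plants were harvested about 4 weeks post-treatment and pooled across replicates to analyse protein, amino acids, fiber, fatty acids and minerals (Na, Ca, P, Mg, K, Fe, Mn, Zn, Cu). Treatments were postemergence insecticide, fungicide, PGRs and safeners. Visual injury scored 0–100% (phytotoxicity, chlorosis, stunting).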

[3] = test system: basil 'Genovese'; assay: Content analysis of basil: protein, minerals (Example 4, Tables 10-11); details: 28 DA-A, rates g ai/ha: chlroprifos 3370, chlorothalonil 7900, paclobutrazol 9.7, mepiquat-chloride 37, Isoxadifen 16, Napthalic anhydride 527, + NIS 0.25 % v/v
Outline: as §1

[4] = first-listed rate g ai/ha: chlropyrifos ###, paclobutrazol 3.2, mepiquat-chloride 12, + NIS 0.3 % v/v
[5] = rates g ai/ha: chlropyrifos 1120, chlorothalonil 2630, paclobutrazol 3.23, mepiquat-chloride 12.3, + NIS 0.25 % v/v
[6] = rates g ai/ha: chlropyrifos 3370, chlorothalonil 7900, paclobutrazol 9.7, mepiquat-chloride 37, + NIS 0.25 % v/v
[7] = second-listed rate g ai/ha: chlropyrifos ###, paclobutrazol 9.7, mepiquat-chloride 37, + NIS 0.3 % v/v

C[N+]1(C)CCCCC1 [mepiquat-chloride]
Alanine, Percent Increase over the Untreated Check (on a % dry matter basis) [1, 4]: 5 % check | Aspartic acid, Percent Increase over the Untreated Check (on a % dry matter basis) [1, 4]: 6 % check | Cysteine, Percent Increase over the Untreated Check (on a % dry matter basis) [1, 4]: 6 % check | Glutamic acid, Percent Increase over the Untreated Check (on a % dry matter basis) [1, 4]: 11 % check | Glycine, Percent Increase over the Untreated Check (on a % dry matter basis) [1, 4]: 4 % check | Iso-leucine, Percent Increase over the Untreated Check (on a % dry matter basis) [1, 4]: 6 % check | Leucine, Percent Increase over the Untreated Check (on a % dry matter basis) [1, 4]: 4 % check | Lysine, Percent Increase over the Untreated Check (on a % dry matter basis) [1, 4]: 6 % check | Methionine, Percent Increase over the Untreated Check (on a % dry matter basis) [1, 4]: 4 % check | Proline, Percent Increase over the Untreated Check (on a % dry matter basis) [1, 4]: 8 % check | Threonine, Percent Increase over the Untreated Check (on a % dry matter basis) [1, 4]: 6 % check | Total Amino acids, Percent Increase over the Untreated Check (on a % dry matter basis) [1, 4]: 6 % check | Total Protein, Percent Increase over the Untreated Check (on a % dry matter basis) [1, 4]: 4 % check | Valine, Percent Increase over the Untreated Check (on a % dry matter basis) [1, 4]: 5 % check | ADF, Percent Increase Over the Untreated Check (on a % dry matter basis) [1, 5]: 7 % check | Calcium, Percent Increase Over the Untreated Check (on a % dry matter basis) [1, 5]: −4 % check | Copper, Percent Increase Over the Untreated Check (on a % dry matter basis) [1, 5]: 0 % check | Iron, Percent Increase Over the Untreated Check (on a % dry matter basis) [1, 5]: −5 % check | Magnesium, Percent Increase Over the Untreated Check (on a % dry matter basis) [1, 5]: −3 % check | Manganese, Percent Increase Over the Untreated Check (on a % dry matter basis) [1, 5]: −2 % check | NDF, Percent Increase Over the Untreated Check (on a % dry matter basis) [1, 5]: −2 % check | Phosphorous, Percent Increase Over the Untreated Check (on a % dry matter basis) [1, 5]: 1 % check | Potassium, Percent Increase Over the Untreated Check (on a % dry matter basis) [1, 5]: −5 % check | Sodium, Percent Increase Over the Untreated Check (on a % dry matter basis) [1, 5]: 4 % check | Zinc, Percent Increase Over the Untreated Check (on a % dry matter basis) [1, 5]: −5 % check | ADF, Percent Increase Over the Untreated Check (on a % dry matter basis) [1, 6]: −2 % check | Calcium, Percent Increase Over the Untreated Check (on a % dry matter basis) [1, 6]: −3 % check | Copper, Percent Increase Over the Untreated Check (on a % dry matter basis) [1, 6]: −6 % check | Iron, Percent Increase Over the Untreated Check (on a % dry matter basis) [1, 6]: −4 % check | Magnesium, Percent Increase Over the Untreated Check (on a % dry matter basis) [1, 6]: 0 % check | Manganese, Percent Increase Over the Untreated Check (on a % dry matter basis) [1, 6]: −7 % check | NDF, Percent Increase Over the Untreated Check (on a % dry matter basis) [1, 6]: −7 % check | Phosphorous, Percent Increase Over the Untreated Check (on a % dry matter basis) [1, 6]: 1 % check | Potassium, Percent Increase Over the Untreated Check (on a % dry matter basis) [1, 6]: −1 % check | Sodium, Percent Increase Over the Untreated Check (on a % dry matter basis) [1, 6]: 4 % check | Zinc, Percent Increase Over the Untreated Check (on a % dry matter basis) [1, 6]: −10 % check | Alanine, Percent Increase over the Untreated Check (on a % dry matter basis) [1, 7]: −4 % check | Aspartic acid, Percent Increase over the Untreated Check (on a % dry matter basis) [1, 7]: −2 % check | Cysteine, Percent Increase over the Untreated Check (on a % dry matter basis) [1, 7]: −6 % check | Glutamic acid, Percent Increase over the Untreated Check (on a % dry matter basis) [1, 7]: −2 % check | Glycine, Percent Increase over the Untreated Check (on a % dry matter basis) [1, 7]: −7 % check | Iso-leucine, Percent Increase over the Untreated Check (on a % dry matter basis) [1, 7]: −3 % check | Leucine, Percent Increase over the Untreated Check (on a % dry matter basis) [1, 7]: −4 % check | Lysine, Percent Increase over the Untreated Check (on a % dry matter basis) [1, 7]: −1 % check | Methionine, Percent Increase over the Untreated Check (on a % dry matter basis) [1, 7]: −4 % check | Proline, Percent Increase over the Untreated Check (on a % dry matter basis) [1, 7]: 2 % check | Threonine, Percent Increase over the Untreated Check (on a % dry matter basis) [1, 7]: −1 % check | Total Amino acids, Percent Increase over the Untreated Check (on a % dry matter basis) [1, 7]: −2 % check | Total Protein, Percent Increase over the Untreated Check (on a % dry matter basis) [1, 7]: 0 % check | Valine, Percent Increase over the Untreated Check (on a % dry matter basis) [1, 7]: −2 % check | Yield Fresh weight ([2]; rates g ai/ha: chlropyrifos 1120, chlorothalonil 2630, paclobutrazol 3.23, mepiquat-chloride 12.3, Isoxadifen 8, Napthalic anhydride 264, + NIS 0.25 % v/v): 36.9 grams | Yield Fresh weight ([2]; rates g ai/ha: chlropyrifos 3370, chlorothalonil 7900, paclobutrazol 9.7, mepiquat-chloride 37, Isoxadifen 16, Napthalic anhydride 527, + NIS 0.25 % v/v): 35.6 grams | ADF, Percent Increase Over the Untreated Check (on a % dry matter basis) [3]: −9 % check | Calcium, Percent Increase Over the Untreated Check (on a % dry matter basis) [3]: 2 % check | Copper, Percent Increase Over the Untreated Check (on a % dry matter basis) [3]: −8 % check | Iron, Percent Increase Over the Untreated Check (on a % dry matter basis) [3]: 6 % check | Magnesium, Percent Increase Over the Untreated Check (on a % dry matter basis) [3]: 16 % check | Manganese, Percent Increase Over the Untreated Check (on a % dry matter basis) [3]: 61 % check
